Tests used:
[1] = Reactive oxygen species (ROS) assay under simulated sunlight; assay type: physicochemical; conditions: for Reactive Oxygen Species Generation Singlet oxygen / Reactive Oxygen Species Generation Superoxide: 200 µM, simulated sunlight 1 h, mean ± standard deviation (n = 3)
Experimental: The ROS assay was designed to detect both singlet oxygen and superoxide generated from photo-irradiated chemicals. Briefly, singlet oxygen was measured in aqueous solution by spectrophotometrically monitoring the bleaching of p-nitrosodimethylaniline at 440 nm using imidazole as a selective acceptor of singlet oxygen. Samples containing the tested chemical (20 or 200 μM), p-nitrosodimethylaniline (50 μM), and imidazole (50 μM) in 20 mM sodium phosphate buffer (pH 7.4) were mixed in a tube. Each sample in 200 μL was transferred into a well of a plastic 96-well plate (clear, untreated, and flat-bottomed) and checked for precipitation under a microscope with an objective lens (×100) before light exposure. The plate was subjected to a measurement of absorbance at 440 nm using a microplate spectrophotometer. The plate was fixed in the quartz reaction container with a quartz cover and then irradiated with the simulated sunlight (ultraviolet A/B and visible light, 250 W/m^2, Suntest CPS plus, Atlas Material Testing Technology, Mount Prospect, IL, USA) for 1 h. After agitation on a plate shaker, the UV absorbance at 440 nm was measured. For the determination of superoxide, samples containing the test chemical (20 or 200 μM) and nitroblue tetrazolium (50 μM) in 20 mM sodium phosphate buffer were irradiated with the simulated sunlight for 1 h and the reduction in nitroblue tetrazolium was measured by the increase in absorbance at 560 nm in the same manner as the singlet oxygen determination. Experiments were performed in triplicate wells in three independent runs. As the final concentration, 200 μM test chemical solutions should be subjected to the ROS assay. However, when precipitation could be observed at 200 μM under the optical microscope, additional experiments should be performed under appropriate dilution (20, 50, or 100 μM).

[2] = PAMPA (parallel artificial membrane permeability assay); assay type: in vitro ADME
Experimental: In order to determine the passive membrane diffusion rates, the Corning Gentest Pre-coated PAMPA Plate System was used in the PAMPA test. […] The acceptor plate was then placed on top of the donor plate and incubated at 37 °C without agitation for 4 h. At the end of the incubation, the plates were separated and the solutions from each well of both the acceptor plate and the donor plate were transferred to 96-well plates and mixed with acetonitrile. The final concentrations of compound in both the donor wells and acceptor wells, as well as the concentrations of the initial donor solutions, were analyzed by LC-MS/MS. The permeability of the compound was calculated according to the previous report.

[3] = design: method as in PMID 18185985; conditions: cited from earlier work

For CCN1C=C\C(=C/C=C(\C=C/c2cc[n+](CC)c3ccccc23)c2cc[n+](CC)c3ccccc23)c2ccccc21.[I-].[I-] [NK-4, 1-ethyl-4-[(1Z,3E,5E)-1-(1-ethylquinolin-1-ium-4-yl)-5-(1-ethylquinolin-4-ylidene)penta-1,3-dien-3-yl]quinolin-1-ium;iodide], the “phototoxicity conclusion from ROS assay” value [1] was “less phototoxic”.

In the case of C=C[C@H]1C[N@@]2CC[C@H]1C[C@H]2[C@H](O)c1ccnc2ccc(OC)cc12 [Quinine], the “Reactive Oxygen Species Generation Singlet oxygen” value [1] is reported as 602 ± 7 ΔA440 × 1000 and the “Reactive Oxygen Species Generation Superoxide” value [1] is reported as 348 ± 12 ΔA560 × 1000.

In the case of COc1cc(O)c(C(=O)c2ccccc2)cc1S(=O)(=O)O [Sulisobenzone], the “Reactive Oxygen Species Generation Singlet oxygen” value [1] is reported as “Not detected” and the “Reactive Oxygen Species Generation Superoxide” value [1] is reported as “Not detected”.

In the case of Cc1cc(=O)n(-c2ccccc2)n1C [antipyrine], the Papp at 4 h, 100 μM ([2]; PAMPA, read-out: PAMPA permeability of reference compound) is reported as 11 ×10⁻⁶ cm/s.

In the case of COCCc1ccc(OCC(O)CNC(C)C)cc1 (centres unmarked) [metoprolol], the “PAMPA permeability of reference compound” value ([2]; reference compound at 500 μM) is reported as 1.5 ×10⁻⁶ cm/s.

In the case of O=C(O)c1cc(/N=N/c2ccc(S(=O)(=O)Nc3ccccn3)cc2)ccc1O [sulfasarazine], the “gastrointestinal absorption in human” value [3] is given as 13%.

— PMC8235661, “Photoelectric Dye, NK-5962, as a Potential Drug for Preventing Retinal Neurons from Apoptosis: Pharmacokinetic Studies Based on Review of the Evidence” (Life, 2021)
